Assay results as given in ChEMBL document CHEMBL1155431, “Antimicrobial activity of long-chain (E)-3-alken-2-ones” (2010).
Values after ≈ are worked out from the molar mass of the structure shown. Active and inactive are the calls of the source. No cut-off for these calls is given here.

Tests used:
Malassezia = test: Antimicrobial activity against Pityrosporum ovale ATCC 14521 after 3 days by two fold serial broth dilution method; assay type: functional; settings: ATCC 14521, 72 h
Pseudomonas aeruginosa = test: Antimicrobial activity against Pseudomonas aeruginosa ATCC 10145 after 2 days by two fold serial broth dilution method; assay type: functional, organism-based
Saccharomyces cerevisiae = test: Antimicrobial activity against Saccharomyces cerevisiae ATCC 7754 after 2 days by two fold serial broth dilution method; assay type: functional, organism-based
Escherichia coli = test: Antimicrobial activity against Escherichia coli ATCC 9637 after 2 days by two fold serial broth dilution method; assay type: functional, organism-based
Klebsiella aerogenes = test: Antimicrobial activity against Enterobacter aerogenes ATCC 13048 after 2 days by two fold serial broth dilution method; assay type: functional, organism-based

Row | Structure (SMILES) | MIC (Malassezia) [µg/mL] | other results
1 | CCCCCCCCCCC/C=C/C(C)=O | 400 (≈ 1780 µM) | 
2 | CCCCCCCCCCCC/C=C/C(C)=O | > 800 | 
3 | CCCCCCCCCCCCC/C=C/C(C)=O | > 800 | 

Further lines, with some results ahead:

Row | MIC (Malassezia) [µg/mL] | Structure (SMILES) | other results
4 | 100 (≈ 475 µM) | CCCCCCCCCC/C=C/C(C)=O | 
5 | 100 (≈ 594 µM) | CCCCCCC/C=C/C(C)=O | 
6 | 100 (≈ 549 µM) | CCCCCCCC/C=C/C(C)=O | 
7 | 100 (≈ 509 µM) | CCCCCCCCC/C=C/C(C)=O | Activity (Pseudomonas aeruginosa): inactive; Activity (Saccharomyces cerevisiae): inactive; Activity (Escherichia coli): inactive; Activity (Klebsiella aerogenes): inactive
